In paper PMC5225203, “Multiparameter toxicity assessment of novel DOPO-derived organophosphorus flame retardants” (Archives of Toxicology, 2016):

Assays:
[1] = Penetration into porcine skin by confocal Raman spectroscopy; assay type: in vitro ADME; conditions: 1 h; for maximal penetration depth: porcine skin surface, 400 µM; for penetration/accumulation into porcine ear skin: topical 400 µM, confocal Raman
Description: The vertical distribution of topically applied DOPO derivatives and reference compounds was investigated on segments of porcine ears from freshly slaughtered animals. The skin was separated from the cartilage, depilated, and placed into Franz diffusion cells (1 cm^2). The acceptor solution was PBS buffer containing 2 % IGEPAL® CA-630 (Sigma-Aldrich). The test compounds were dispersed at a concentration of 400 µM (2 % in the case of caffeine) in PBS buffer containing 2 % IGEPAL® CA-630, after which 300 µL of this mixture (or a blank solution) was topically applied onto the porcine skin and allowed to penetrate for 60 min. Next, the skin was removed from the Franz cells, gently washed with PBS, and placed onto the optical window of an inverse confocal Raman microscope (Model 3510 SCA, River Diagnostics) equipped with a 60 × oil-immersion objective. The 785-nm excitation laser was used to acquire spectra in the fingerprint region (400–1800 cm^−1, 5 s integration time) starting from the surface of the skin and extending to a depth of 60 µm (2 µm step size). The acquisition was repeated for at least five positions. The averaged concentration profiles of the flame retardants and reference compounds were extracted by fitting (unrestricted classical least squares, third-order polynomial baseline) the Raman spectra with the reference spectra of keratin (as representative of all proteins), water, ceramide 3, cholesterol (as representatives of all lipids), natural moisturizing factor (NMF; fixed composition), lactate, urea, and solid test compounds using Skin Tools 2.0 software (River Diagnostics). The concentrations of the test substances are given as the molar fraction relative to keratin rather than correcting for the Raman signal attenuation using mathematical models (Franzen et al. [2013]). The response factors of the test compounds were determined against BSA solutions assuming similar Raman cross sections for keratin and BSA as described in the literature (Caspers et al. [2001]; Fleischli et al. [2013], [2015]). Because EDA-DOPO, ETA-DOPO, and EG-DOPO were only partially soluble in chloroform, their spectra were calibrated against DOPO with the assumption of the same Raman cross section for the biphenyl group. Because of the nature of the unrestricted fit, negative fitting coefficients can be obtained and the values must be compared to those of the blank sample. The fitting coefficients of the blank, untreated skin were also used to estimate the level of detection. The depth resolution of the confocal microscope was determined to be 8 µm at FWHM, leaving an uncertainty of approximately 4 µm in differentiating between truly permeated compounds and compounds sitting at the surface of the skin.

[2] = test system: ARE-dependent luciferase expression in KeratinoSens cells; assay: KeratinoSens skin sensitization assay; assay type: cell-based; conditions: for cell viability (PrestoBlue) in KeratinoSens cells / ARE-dependent luciferase expression: 48 h; for skin sensitizer classification / ARE-dependent luciferase expression: KeratinoSens
Description: Generation of the stable KeratinoSens™ cell line was previously described in detail (Emter et al. [2010]). KeratinoSens™ cells were maintained in DMEM containing glutamax (Gibco/Invitrogen), 9 % FCS, and 0.5 mg/mL G418. For the experiments, KeratinoSens™ cells were seeded onto 96-well plates at a density of 10,000 cells per well in 125 µL medium without G418. After 24 h, the medium was replaced with 200 µL DMEM containing 1 % FCS and the test compounds. After a 2-day incubation period at 37 °C in an atmosphere containing 5 % CO2, the cells were washed once with PBS and a resazurin reduction assay (PrestoBlue®) was carried out in order to compare the viability of the differently treated groups. Fluorescence intensity was measured at 550 nmex and 590 nmem. After another washing step with PBS, cell lysis was performed using 20 µL/well passive lysis buffer (Promega) for 20 min at room temperature. Luciferase activity was measured by applying 50 µL luciferase substrate automatically to each well and detecting the resulting luminescence. Compounds were considered as skin sensitizers when a statistically significant induction of luciferase activity above a defined threshold of ≥1.5 in the absence of impaired cell viability was observed (Emter et al. [2010]; Natsch et al. [2011]).

A549 cells = test system: A549 cells; parameters: method as in Kim et al. [2014]; conditions: same concentration range as used in the present study; ref Kim et al. [2014]; cited from earlier work

## Brc1ccc(Oc2cc(Br)c(Br)cc2Br)c(Br)c1 [PBDE-99, reference compound]
[1]
  maximal penetration depth: less than 8 µm
  penetration/accumulation into porcine ear skin: moderate accumulation
[2]
  cell viability (PrestoBlue) in KeratinoSens cells: absence of significant cell death
[2]; at a concentration of 3 µM, in the absence of significant cell death
  increase in ARE-dependent luciferase expression: ca. twofold
A549 cells
  cell damage in A549 cells: did not produce cell damage

## O=P1(OCCOP2(=O)Oc3ccccc3-c3ccccc32)Oc2ccccc2-c2ccccc21 (centres unmarked) [EG-DOPO, 6,6′-(ethane-1,2-diylbis(oxy))bis(6H-dibenzo[c,e][1,2]oxaphosphinine-6-oxide)]
[2]
  cell viability (PrestoBlue) in KeratinoSens cells: decline in cell viability
  skin sensitizer classification: No specific effects
  ARE-dependent luciferase expression: increase in ARE-dependent luciferase expression

## O=[PH]1Oc2ccccc2-c2ccccc21 (centres unmarked) [DOPO, 9,10-dihydro-9-oxa-10-phosphaphenanthrene-10-oxide]
[2]
  skin sensitizer classification: No specific effects
  ARE-dependent luciferase expression: neither induced luciferase activity

## O=P1(NCCNP2(=O)Oc3ccccc3-c3ccccc32)Oc2ccccc2-c2ccccc21 (centres unmarked) [EDA-DOPO, 6,6′-(ethane-1,2-diylbis(azanediyl))bis(6H-dibenzo[c,e][1,2]oxaphosphinine-6-oxide)]
[2]
  skin sensitizer classification: No specific effects
  ARE-dependent luciferase expression: neither induced luciferase activity

## O=P1(NCCOP2(=O)Oc3ccccc3-c3ccccc32)Oc2ccccc2-c2ccccc21 (centres unmarked) [ETA-DOPO, 6-(2-((6-oxido-6H-dibenzo[c,e][1,2]oxaphosphinin-6-yl)amino)ethoxy)-6H-dibenzo[c,e][1,2]oxaphosphinine 6-oxide]
[1]
  maximal penetration depth: less than 8 µm
  penetration/accumulation into porcine ear skin: significant accumulation
[2]
  cell viability (PrestoBlue) in KeratinoSens cells: decline in cell viability
  skin sensitizer classification: No specific effects
  ARE-dependent luciferase expression: increase in ARE-dependent luciferase expression
